row,melting point [°C],SMILES
1,142 to 144,"O=C(NCC1(c2c(Cl)cc(Cl)cc2Cl)CC1)c1ncccc1C(F)(F)F [A.29, N-[[1-(2,4,6-trichlorophenyl)cyclopropyl]methyl]-3-(trifluoromethyl)pyridine-2-carboxamide]"
2,100 to 102,"N#Cc1cc(F)c(C2(CNC(=O)c3ccccc3C(F)(F)F)CC2)c(F)c1 [A.57, N-[[1-(4-cyano-2,6-difluoro-phenyl)cyclopropyl]methyl]-2-(trifluoromethyl)benzamide]"

# Reference: patent US9497965B2, “Pesticidal compounds” (Syngenta Participations AG, priority 2011, dated 2016)
